# Assay results published in ChEMBL document CHEMBL1201862, “PubChem BioAssay data set” (2004).
#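 1) Cells in 96-well plates. 2) Compound, 48 h, 5 concentrations. 3) Linear interpolation between surrounding doses. 4) Unreached endpoint = highest concentration. The concentration for 50% growth inhibition is given as GI50.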 Calls of active or inactive are those of the source. No stated cut-off is given here; in the data, active = GI50 up to about 1.1 µM and inactive = higher.
# Experiments:
# Assay in all cases: growth of human tumour cells (NCI), 48 h
# 786-0 = system: 786-0
# A498 = system: A498
# A549 = system: A549
# ACHN = system: ACHN
# BT-549 = system: BT-549
# CAKI-1 = system: CAKI-1
# CCRF-CEM = system: CCRF-CEM
# COLO 205 = system: COLO 205
# DU-145 = system: DU-145
# HCC 2998 = system: HCC 2998
# HCT-116 = system: HCT-116
# HCT-15 = system: HCT-15
# HL-60 = system: HL-60
# HOP-62 = system: HOP-62
# HOP-92 = system: HOP-92
# HT-29 = system: HT-29
# Hs-578T = system: Hs-578T
# IGROV-1 = system: IGROV-1
# K562 = system: K562
# KM12 = system: KM12
# LOX IMVI = system: LOX IMVI
# M14 = system: M14
# MCF7 = system: MCF7
# MDA-MB-231 = system: MDA-MB-231
# MDA-MB-435 = system: MDA-MB-435
# MDA-N = system: MDA-N
# MOLT-4 = system: MOLT-4
# Malme-3M = system: Malme-3M
# NCI-H226 = system: NCI-H226
# NCI-H23 = system: NCI-H23
# NCI-H460 = system: NCI-H460
# NCI-H522 = system: NCI-H522
# NCI/ADR-RES = system: NCI/ADR-RES
# OVCAR-3 = system: OVCAR-3
# OVCAR-4 = system: OVCAR-4
# OVCAR-5 = system: OVCAR-5
# OVCAR-8 = system: OVCAR-8
# PC-3 = system: PC-3
# RPMI-8226 = system: RPMI-8226
# RXF 393 = system: RXF 393
# SF-268 = system: SF-268
# SF-295 = system: SF-295
# SF-539 = system: SF-539
# SK-MEL-28 = system: SK-MEL-28
# SK-MEL-2 = system: SK-MEL-2
# SK-MEL-5 = system: SK-MEL-5
# SK-OV-3 = system: SK-OV-3
# SN12C = system: SN12C
# SNB-19 = system: SNB-19
# SNB-75 = system: SNB-75
# SR = system: SR
# SW-620 = system: SW-620
# T47D = system: T47D
# TK-10 = system: TK-10
# U-251 = system: U-251
# UACC-62 = system: UACC-62
# UO-31 = system: UO-31
# UACC-257 = system: UACC-257
# EKVX = system: EKVX
smiles,measurement,setting,value
Cc1cccc(-c2cc(O)c3ccc(C)nc3n2)c1,GI50,786-0,430 nM (active)
same,GI50,A498,644 nM (active)
same,GI50,A549,508 nM (active)
same,GI50,ACHN,711 nM (active)
same,GI50,BT-549,435 nM (active)
same,GI50,CAKI-1,256 nM (active)
same,GI50,CCRF-CEM,354 nM (active)
same,GI50,COLO 205,140 nM (active)
same,GI50,DU-145,598 nM (active)
same,GI50,HCC 2998,1070 nM (active)
same,GI50,HCT-116,297 nM (active)
same,GI50,HCT-15,194 nM
same,GI50,HL-60,90.2 nM (active)
same,GI50,HOP-62,546 nM (active)
same,GI50,HOP-92,1140 nM (inactive)
same,GI50,HT-29,198 nM (active)
same,GI50,Hs-578T,337 nM (active)
same,GI50,IGROV-1,601 nM (active)
same,GI50,K562,99.3 nM (active)
same,GI50,KM12,120 nM (active)
same,GI50,LOX IMVI,556 nM (active)
same,GI50,M14,226 nM (active)
same,GI50,MCF7,443 nM (active)
same,GI50,MDA-MB-231,409 nM (active)
same,GI50,MDA-MB-435,29.4 nM (active)
same,GI50,MDA-N,28.3 nM (active)
same,GI50,MOLT-4,421 nM (active)
same,GI50,Malme-3M,296 nM (active)
same,GI50,NCI-H226,367 nM (active)
same,GI50,NCI-H23,643 nM (active)
same,GI50,NCI-H460,334 nM (active)
same,GI50,NCI-H522,194 nM (active)
same,GI50,NCI/ADR-RES,141 nM (active)
same,GI50,OVCAR-3,188 nM (active)
same,GI50,OVCAR-4,10000 nM (inactive)
same,GI50,OVCAR-5,723 nM (active)
same,GI50,OVCAR-8,800 nM (active)
same,GI50,PC-3,261 nM (active)
same,GI50,RPMI-8226,430 nM (active)
same,GI50,RXF 393,456 nM (active)
same,GI50,SF-268,723 nM (active)
same,GI50,SF-295,278 nM (active)
same,GI50,SF-539,338 nM (active)
same,GI50,SK-MEL-28,2750 nM (inactive)
same,GI50,SK-MEL-2,421 nM (active)
same,GI50,SK-MEL-5,89.5 nM (active)
same,GI50,SK-OV-3,656 nM (active)
same,GI50,SN12C,668 nM (active)
same,GI50,SNB-19,506 nM (active)
same,GI50,SNB-75,233 nM (active)
same,GI50,SR,49.1 nM (active)
same,GI50,SW-620,101 nM (active)
same,GI50,T47D,249 nM (active)
same,GI50,TK-10,3300 nM (inactive)
same,GI50,U-251,389 nM (active)
same,GI50,UACC-62,410 nM (active)
same,GI50,UO-31,3770 nM (inactive)
COC(=O)n1c(=O)nc2c3c(ncn21)Oc1c(c(-c2ccccc2)nn1-c1ccccc1)C3c1ccc(Cl)cc1 (stereo unspecified),GI50,786-0,1490 nM (inactive)
same,GI50,A498,2030 nM (inactive)
same,GI50,A549,1770 nM (inactive)
same,GI50,ACHN,1820 nM (inactive)
same,GI50,BT-549,3870 nM (inactive)
same,GI50,CAKI-1,1630 nM (inactive)
same,GI50,CCRF-CEM,1500 nM (inactive)
same,GI50,COLO 205,1450 nM (inactive)
same,GI50,DU-145,1630 nM (inactive)
same,GI50,HCC 2998,1420 nM (inactive)
same,GI50,HCT-116,1010 nM (active)
same,GI50,HCT-15,1600 nM
same,GI50,HL-60,1510 nM (inactive)
same,GI50,HOP-62,1720 nM (inactive)
same,GI50,HOP-92,1710 nM (inactive)
same,GI50,HT-29,1560 nM (inactive)
same,GI50,Hs-578T,1170 nM (inactive)
same,GI50,K562,1620 nM (inactive)
same,GI50,KM12,1370 nM (inactive)
same,GI50,LOX IMVI,1480 nM (inactive)
same,GI50,M14,1440 nM (inactive)
same,GI50,MCF7,1690 nM (inactive)
same,GI50,MDA-MB-231,1670 nM (inactive)
same,GI50,MDA-MB-435,1660 nM (inactive)
same,GI50,MDA-N,1660 nM (inactive)
same,GI50,Malme-3M,1040 nM (active)
same,GI50,NCI-H226,1580 nM (inactive)
same,GI50,NCI-H23,2030 nM (inactive)
same,GI50,NCI-H460,1650 nM (inactive)
same,GI50,NCI-H522,1500 nM (inactive)
same,GI50,NCI/ADR-RES,1460 nM (inactive)
same,GI50,OVCAR-3,1420 nM (inactive)
same,GI50,OVCAR-4,2390 nM (inactive)
same,GI50,OVCAR-5,1320 nM (inactive)
same,GI50,OVCAR-8,1630 nM (inactive)
same,GI50,PC-3,1590 nM (inactive)
same,GI50,RPMI-8226,2100 nM (inactive)
same,GI50,RXF 393,1630 nM (inactive)
same,GI50,SF-268,1300 nM (inactive)
same,GI50,SF-295,1670 nM (inactive)
same,GI50,SF-539,1760 nM (inactive)
same,GI50,SK-MEL-28,1790 nM (inactive)
same,GI50,SK-MEL-2,1700 nM (inactive)
same,GI50,SK-MEL-5,1770 nM (inactive)
same,GI50,SK-OV-3,3290 nM (inactive)
same,GI50,SN12C,1730 nM (inactive)
same,GI50,SNB-19,1750 nM (inactive)
same,GI50,SNB-75,2000 nM (inactive)
same,GI50,SR,1820 nM (inactive)
same,GI50,SW-620,1690 nM (inactive)
same,GI50,T47D,1710 nM (inactive)
same,GI50,TK-10,1790 nM (inactive)
same,GI50,U-251,1710 nM (inactive)
same,GI50,UACC-257,1890 nM (inactive)
same,GI50,UACC-62,1950 nM (inactive)
same,GI50,UO-31,1680 nM (inactive)
COc1cc2c3c(c1OC)C1(C=CC(=O)C=C1)CC3NCC2 (stereo unspecified),GI50,786-0,44000 nM (inactive)
same,GI50,A498,> 100000 nM (inactive)
same,GI50,A549,> 100000 nM (inactive)
same,GI50,ACHN,> 100000 nM (inactive)
same,GI50,BT-549,> 100000 nM (inactive)
same,GI50,CAKI-1,> 100000 nM (inactive)
same,GI50,CCRF-CEM,48800 nM (inactive)
same,GI50,COLO 205,> 100000 nM (inactive)
same,GI50,DU-145,> 100000 nM (inactive)
same,GI50,EKVX,> 100000 nM (inactive)
same,GI50,HCC 2998,> 100000 nM (inactive)
same,GI50,HCT-116,> 100000 nM (inactive)
same,GI50,HCT-15,> 100000 nM
same,GI50,HL-60,32600 nM (inactive)
same,GI50,HOP-62,> 100000 nM (inactive)
same,GI50,HOP-92,> 100000 nM (inactive)
same,GI50,HT-29,> 100000 nM (inactive)
same,GI50,Hs-578T,> 100000 nM (inactive)
same,GI50,IGROV-1,> 100000 nM (inactive)
same,GI50,K562,> 100000 nM (inactive)
same,GI50,KM12,80000 nM (inactive)
same,GI50,LOX IMVI,> 100000 nM (inactive)
same,GI50,M14,> 100000 nM (inactive)
same,GI50,MCF7,> 100000 nM (inactive)
same,GI50,MDA-MB-231,> 100000 nM (inactive)
same,GI50,MDA-MB-435,> 100000 nM (inactive)
same,GI50,MDA-N,> 100000 nM (inactive)
same,GI50,MOLT-4,> 100000 nM (inactive)
same,GI50,Malme-3M,> 100000 nM (inactive)
same,GI50,NCI-H226,> 100000 nM (inactive)
same,GI50,NCI-H23,> 100000 nM (inactive)
same,GI50,NCI-H460,> 100000 nM (inactive)
same,GI50,NCI-H522,71000 nM (inactive)
same,GI50,NCI/ADR-RES,> 100000 nM (inactive)
same,GI50,OVCAR-3,> 100000 nM (inactive)
same,GI50,OVCAR-4,> 100000 nM (inactive)
same,GI50,OVCAR-5,> 100000 nM (inactive)
same,GI50,OVCAR-8,> 100000 nM (inactive)
same,GI50,PC-3,> 100000 nM (inactive)
same,GI50,RPMI-8226,> 100000 nM (inactive)
same,GI50,RXF 393,89700 nM (inactive)
same,GI50,SF-268,> 100000 nM (inactive)
same,GI50,SF-295,> 100000 nM (inactive)
same,GI50,SF-539,> 100000 nM (inactive)
same,GI50,SK-MEL-28,> 100000 nM (inactive)
same,GI50,SK-MEL-2,> 100000 nM (inactive)
same,GI50,SK-MEL-5,> 100000 nM (inactive)
same,GI50,SK-OV-3,> 100000 nM (inactive)
same,GI50,SN12C,> 100000 nM (inactive)
same,GI50,SNB-19,> 100000 nM (inactive)
same,GI50,SNB-75,80500 nM (inactive)
same,GI50,SR,> 100000 nM (inactive)
same,GI50,SW-620,> 100000 nM (inactive)
same,GI50,T47D,> 100000 nM (inactive)
same,GI50,TK-10,> 100000 nM (inactive)
same,GI50,U-251,> 100000 nM (inactive)
same,GI50,UACC-257,> 100000 nM (inactive)
same,GI50,UACC-62,> 100000 nM (inactive)
